Measurements taken from paper PMC10793205, “Differential transmetallation of complexes of the anti-cancer thiosemicarbazone, Dp4e4mT: effects on anti-proliferative efficacy, redox activity, oxy-myoglobin and oxy-hemoglobin oxidation” (Chemical Science, 2023).
Where two headings read alike, the source gives them in different places.

Columns and labels:
MRC-5 fibroblasts = experiment: MTT cellular proliferation assay, mortal MRC-5 fibroblasts; type: cell-based; conditions: 37 °C, mean ± SD (3 experiments)
Protocol: (§1) To examine the selectivity of the Dp4e4mT complexes against neoplastic versus normal mortal cells, their anti-proliferative efficacy was compared to mortal MRC-5 fibroblasts after a 72 h/37 °C incubation (Table 3). […] To further examine selectivity, an in vitro therapeutic index was calculated as per our previous investigations.[28,57,59,66,67] This parameter is derived from the ratio of the IC50 of MRC-5 cells/IC50 of SK-N-MC or AsPC-1 cells; with high ratios indicating greater selective anti-proliferative activity against neoplastic cells (Table 3). The mean therapeutic index is the average of the therapeutic indices calculated for both tumor cell-types. […] The mean therapeutic index of Dp4e4mT exceeded that obtained for clinically trialed DpC (157), as well as that of Dp44mT (112) and DFO (6). […]
(§2) All cell lines were procured from the American Type Culture Collection (ATCC; Manassas, VA). The SK-N-MC neuroepithelioma cell line and the mortal MRC-5 fibroblasts were cultured in minimum essential medium (Sigma-Aldrich), while the AsPC-1 cell line was cultured in Roswell Park Memorial Institute 1640 medium (Thermo Fisher Scientific, MA, USA). Both media were supplemented with 10% fetal calf serum, non-essential amino acids (1 mM), sodium pyruvate (1 mM), L-glutamine (2 mM), penicillin (100 U/mL), streptomycin (100 U/mL), and Fungizone (0.5 µg/mL). Cells were maintained at 37 °C in an incubator under a humidified atmosphere with 5% CO 2, following established protocols. 11 Cellular Proliferation Assay
(§3) Cellular proliferation was evaluated through the established 3-(4,5-dimethylthiazol-2-yl)-2,5-diphenyltetrazolium bromide (MTT) proliferation assay, validated by viable cell counts.12 […]
(§4) Ligands and complexes were dissolved in DMSO to make a stock solution of 10 mM, subsequently diluted in culture media. For cell culture experiments, the DMSO's maximum concentration remained below 0.5% (v/v), with no discernible impact on proliferation.12 MTT […]
(§5) Trypan blue staining.12 Analysis of the data was executed employing MARS Data Analysis Software (BMG LabTech; version 3.30). The concentration of agents necessary to inhibit cellular proliferation by 50% (IC 50) was then calculated. […]

SK-N-MC and AsPC-1 cells = experiment: MTT cellular proliferation assay, values stated over both tumor cell-types; type: cell-based, human; conditions: for Mean therapeutic index: average of the therapeutic indices for SK-N-MC and AsPC-1 vs MRC-5, 72 h/37 °C; for IC50: SK-N-MC and AsPC-1, after 72 h, read-out: IC50 (range over both cell-types)
Protocol: The anti-proliferative activity of Dp4e4mT relative to its complexes with Fe(III), Co(III), Ni(II), Cu(II), Zn(II), Ga(III), and Pd(II) was examined over incubation periods of 24-, 48-, and 72 h/37 °C (Table 2). These studies were performed using human SK-N-MC neuroepithelioma and AsPC-1 pancreatic adenocarcinoma cells that we have previously examined to assay other ligands.[15,28,43]
as §1, §2, §3, §4, §5

H2DCF = experiment: Redox activity: H2DCF oxidation to DCF (cell-free, L-cysteine/H2O2); type: biochemical; conditions: for DCF fluorescence (H2DCF oxidation) of agent alone: 10 μM, pH 7.4 and pH 5, no added CuCl2; for DCF fluorescence (H2DCF oxidation) after addition of CuCl2: 10 μM complex + CuCl2, pH 7.4 and pH 5
Protocol: Redox activity in cells was examined using an established in vitro method examining 2′,7′-dichlorodihydrofluorescein (H2DCF) oxidation to fluorescent 2′,7′-dichlorofluorescein (DCF) at cytosolic pH (pH 7.4 using HBSS buffer) relative to lysosomal pH (pH 5; acetate buffer; Fig. 5).[25,26,28,42,46] To these buffers containing the complexes, L-cysteine (100 μM) was added as a reducing agent, followed by H2DCF (5 μM). Then, hydrogen peroxide (H2O2; 100 μM) was added to initiate hydroxyl radical generation. Both [Cu(DpC)Cl2] and [Cu(DpC)2] were used as positive controls due to their documented redox activity.[28,42] In contrast, the ligand, DpC, was implemented as a negative control, as it is redox inert.[28,42] As an additional control, the established Cu chelator, tetrathiomolybdate (TM), was utilized to remove Cu from the thiosemicarbazone complexes to indicate its role in their redox activity.[27,28,42] Additionally, UV-vis spectroscopy (300–700 nm) of the same solution for each complex was also performed to understand both the oxidation of H2DCF and the formation of fluorescent DCF upon excitation at 503 nm (Fig. S20A–F and S21A–F ^†). […]
ROS Generation Analysis with H 2DCF-DA
The generation of reactive oxygen species (ROS) was assessed by examining the oxidation of H2DCF.2, 8, 13, 14 Solutions containing CuCl2, TM, DpC, Dp4e4mT, [Fe(DpC)2]+, [Cu(DpC)Cl2], [Cu(DpC)2] and the Dp4e4mT complexes were prepared at a concentration of 10 µM in either HBSS (pH 7.4) or 150 mM acetate buffer (pH 5) to simulate the conditions of the cytosol and lysosome, respectively.2, 8, 14, 15 The H2DCF was prepared by deacetylation of DCFH-DA (Sigma-Aldrich) through alkaline hydrolysis using NaOH. 16
In these prepared solutions, L-cysteine (100 µM) was added as a reducing agent and then H2DCF (5 µM) added. The initiation of hydroxyl radical generation was achieved by the addition of hydrogen peroxide (H2O2; 100 µM). As a comparative benchmark, HBSS or acetate buffer containing L-cysteine, H2DCF, and H2O2, but lacking ligands or metal complexes, was employed as a control. Fluorescence measurements were carried out using a CLARIOstar Plus microplate reader (BMG LABTECH, Australia) with an excitation wavelength of 485 nm and an emission wavelength of 530 nm. 8, 14

[1] = Homo sapiens, MRC5, MRC-5, 72 h
[2] = listed as Dp4e4mT Co(III) complex

Structure (SMILES) | IC50 (MRC-5 fibroblasts; MRC-5, 72 h) | Mean therapeutic index (SK-N-MC and AsPC-1 cells) | DCF fluorescence (H2DCF oxidation) of agent alone (H2DCF) | IC50 (MRC-5 fibroblasts; [1]) | DCF fluorescence (H2DCF oxidation) after addition of CuCl2 (H2DCF) | IC50 (SK-N-MC and AsPC-1 cells) | further results
CCN(C)C([S-])=NN=C(c1ccccn1)c1ccccn1.[Cl-].[Cu+2] [[Cu(Dp4e4mT)Cl]] | 391 ± 72 nM | 130 | greatest efficacy at increasing DCF fluorescence |  |  |  | 
CN(C(=S)NN=C(c1ccccn1)c1ccccn1)C1CCCCC1 [DpC, di-2-pyridylketone 4-cyclohexyl-4-methyl-3-thiosemicarbazone, reference compound] |  | 157 | did not significantly (p > 0.05) increase DCF fluorescence | 2987 ± 8 nM |  |  | IC50 (SK-N-MC and AsPC-1 cells; Homo sapiens): 18 to 28 nM
CN(C)C(=S)NN=C(c1ccccn1)c1ccccn1 [Dp44mT, di-2-pyridylketone 4,4-dimethyl-3-thiosemicarbazone, reference compound] |  | 112 |  | 1073 ± 7 nM |  |  | 
CCN(C)C([S-])=NN=C(c1ccccn1)c1ccccn1.CCN(C)C([S-])=NN=C(c1ccccn1)c1ccccn1.[Ga+3] [[Ga(Dp4e4mT)2]^+] | 774 ± 14 nM | 173 |  |  | markedly and significantly (p < 0.0001–0.001) increased DCF fluorescence |  | 
CCN(C)C([S-])=NN=C(c1ccccn1)c1ccccn1.CCN(C)C([S-])=NN=C(c1ccccn1)c1ccccn1.[Ni+2] [[Ni(Dp4e4mT)2]] | > 5000 nM | 156 |  |  | markedly and significantly (p < 0.0001–0.001) increased DCF fluorescence | 18 to 76 nM | 
CCN(C)C(=S)NN=C(c1ccccn1)c1ccccn1 [Dp4e4mT, di-2-pyridylketone-4-ethyl-4-methyl-3-thiosemicarbazone] |  | 210 | did not significantly (p > 0.05) increase DCF fluorescence | 1810 ± 518 nM |  |  | 
CCN(C)C([S-])=NN=C(c1ccccn1)c1ccccn1.CCN(C)C([S-])=NN=C(c1ccccn1)c1ccccn1.[Co+3] [[Co(Dp4e4mT)2]^+] | 3901 ± 7 nM | 3 |  |  | not significantly (p > 0.05) different to CuCl2 alone | 818 to 1570 nM | IC50 (SK-N-MC and AsPC-1 cells; [2]): 262 to 1570 nM; Mean therapeutic index (SK-N-MC and AsPC-1 cells; [2]): 3–9
CCN(C)C([S-])=NN=C(c1ccccn1)c1ccccn1.[Cl-].[Pd+2] [[Pd(Dp4e4mT)Cl]] | 1040 ± 11 nM | 3 |  |  | approximately half | 262 to 1570 nM | Mean therapeutic index (SK-N-MC and AsPC-1 cells; listed as Dp4e4mT Pd(II) complex): 3–9
CCN(C)C([S-])=NN=C(c1ccccn1)c1ccccn1.CCN(C)C([S-])=NN=C(c1ccccn1)c1ccccn1.[Fe+3] [[Fe(Dp4e4mT)2]^+] | 1980 ± 6 nM | 9 | markedly and significantly (p < 0.0001) less redox active |  | markedly and significantly (p < 0.0001–0.001) increased DCF fluorescence |  | Mean therapeutic index (SK-N-MC and AsPC-1 cells; listed as Dp4e4mT Fe(III) complex): 3–9
CCN(C)C([S-])=NN=C(c1ccccn1)c1ccccn1.CCN(C)C([S-])=NN=C(c1ccccn1)c1ccccn1.[Zn+2] [[Zn(Dp4e4mT)2]] |  | 156 |  |  | markedly and significantly (p < 0.0001–0.001) increased DCF fluorescence |  | 
